Data: ChEMBL document CHEMBL1134878, “L-Cysteine based N-type calcium channel blockers: structure-activity relationships of the C-terminal lipophilic moiety, and oral analgesic efficacy in rat pain models” (Bioorg Med Chem Lett, 2002)

Tested on: not listed separately
Experiment: Partition coefficient (logP)
Assay type: physicochemical
Conditions: octanol/water

| Structure (SMILES) | logP |
| --- | --- |
| CC(C)(C)OC(=O)N1CSC[C@H]1C(=O)N[C@@H](CSCC1CCCCC1)C(=O)NC1CCN(Cc2ccccc2)CC1 | 3.5 |
| CC(C)(C)OC(=O)N1CSC[C@H]1C(=O)N[C@@H](CSCC1CCCCC1)C(=O)NCc1ccc(Oc2ccccc2)cc1 | 5 |
| CC(C)(C)OC(=O)N1CSC[C@H]1C(=O)N[C@@H](CSCC1CCCCC1)C(=O)NCCNCc1ccccc1 | 2.8 |

Tested on: not listed separately
Experiment: (§1) In vitro inhibition of calcium influx (L-type blocking activity) in AtT-20 mouse pituitary tumor-derived cells
Assay type: functional
Conditions: AtT20

| Structure (SMILES) | IC50 [nM] |
| --- | --- |
| CC(C)(C)OC(=O)N1CSC[C@H]1C(=O)N[C@@H](CSCC1CCCCC1)C(=O)N1CCC(NCc2ccccc2)CC1 | 2600 |
| CC(C)(C)OC(=O)N1CSC[C@H]1C(=O)N[C@@H](CSCC1CCCCC1)C(=O)NC1CCN(Cc2ccccc2)CC1 | 5000 |
| CC(C)(C)OC(=O)N1CSC[C@H]1C(=O)N[C@@H](CSCC1CCCCC1)C(=O)N1CCC(Nc2ccccc2)CC1 | 540 |

Tested on: not listed separately
Experiment: Selectivity IC50 ratio of L-type [Ca2+] channel blocking activity (AtT-20 mouse pituitary tumor-derived cells) to that of N-type blocking activity (IMR-32 human neuroblastoma cells)
Conditions: not given

| Structure (SMILES) | Ratio |
| --- | --- |
| CC(C)(C)OC(=O)N1CSC[C@H]1C(=O)N[C@@H](CSCC1CCCCC1)C(=O)N1CCC(NCc2ccccc2)CC1 | 5.2 |
| CC(C)(C)OC(=O)N1CSC[C@H]1C(=O)N[C@@H](CSCC1CCCCC1)C(=O)NC1CCN(Cc2ccccc2)CC1 | 15 |
| CC(C)(C)OC(=O)N1CSC[C@H]1C(=O)N[C@@H](CSCC1CCCCC1)C(=O)N1CCC(Nc2ccccc2)CC1 | 0.82 |

Tested on: not listed separately
Experiment: as §1
Conditions: AtT20

| Structure (SMILES) | IC50 [nM] |
| --- | --- |
| CC(C)(C)OC(=O)N1CSC[C@H]1C(=O)N[C@@H](CSCC1CCCCC1)C(=O)N1CCN(Cc2ccccc2)CC1 | 1000 |
| CC(C)(C)OC(=O)N1CSC[C@H]1C(=O)N[C@@H](CSCC1CCCCC1)C(=O)NC1CCN(c2ccccc2)CC1 | 540 |
| CC(C)(C)OC(=O)N1CSC[C@H]1C(=O)N[C@@H](CSCC1CCCCC1)C(=O)N1CCN(c2ccccc2)CC1 | 580 |
| CC(C)(C)OC(=O)N1CSC[C@H]1C(=O)N[C@@H](CSCC1CCCCC1)C(=O)NCc1ccc(Oc2ccccc2)cc1 | 1700 |
| CC(C)(C)OC(=O)N1CSC[C@H]1C(=O)N[C@@H](CSCC1CCCCC1)C(=O)NCCNCc1ccccc1 | 2400 |

Target: T1, Voltage-dependent N-type calcium channel subunit alpha-1B (Homo sapiens, UniProt Q00975)
Experiment: Percentage inhibition of N-type calcium channel influx in IMR-32 human neuroblastoma cells at 3 uM
Assay type: cell-based
Conditions: not given
Target sequence in this assay (Q00975 whole entry, looked up): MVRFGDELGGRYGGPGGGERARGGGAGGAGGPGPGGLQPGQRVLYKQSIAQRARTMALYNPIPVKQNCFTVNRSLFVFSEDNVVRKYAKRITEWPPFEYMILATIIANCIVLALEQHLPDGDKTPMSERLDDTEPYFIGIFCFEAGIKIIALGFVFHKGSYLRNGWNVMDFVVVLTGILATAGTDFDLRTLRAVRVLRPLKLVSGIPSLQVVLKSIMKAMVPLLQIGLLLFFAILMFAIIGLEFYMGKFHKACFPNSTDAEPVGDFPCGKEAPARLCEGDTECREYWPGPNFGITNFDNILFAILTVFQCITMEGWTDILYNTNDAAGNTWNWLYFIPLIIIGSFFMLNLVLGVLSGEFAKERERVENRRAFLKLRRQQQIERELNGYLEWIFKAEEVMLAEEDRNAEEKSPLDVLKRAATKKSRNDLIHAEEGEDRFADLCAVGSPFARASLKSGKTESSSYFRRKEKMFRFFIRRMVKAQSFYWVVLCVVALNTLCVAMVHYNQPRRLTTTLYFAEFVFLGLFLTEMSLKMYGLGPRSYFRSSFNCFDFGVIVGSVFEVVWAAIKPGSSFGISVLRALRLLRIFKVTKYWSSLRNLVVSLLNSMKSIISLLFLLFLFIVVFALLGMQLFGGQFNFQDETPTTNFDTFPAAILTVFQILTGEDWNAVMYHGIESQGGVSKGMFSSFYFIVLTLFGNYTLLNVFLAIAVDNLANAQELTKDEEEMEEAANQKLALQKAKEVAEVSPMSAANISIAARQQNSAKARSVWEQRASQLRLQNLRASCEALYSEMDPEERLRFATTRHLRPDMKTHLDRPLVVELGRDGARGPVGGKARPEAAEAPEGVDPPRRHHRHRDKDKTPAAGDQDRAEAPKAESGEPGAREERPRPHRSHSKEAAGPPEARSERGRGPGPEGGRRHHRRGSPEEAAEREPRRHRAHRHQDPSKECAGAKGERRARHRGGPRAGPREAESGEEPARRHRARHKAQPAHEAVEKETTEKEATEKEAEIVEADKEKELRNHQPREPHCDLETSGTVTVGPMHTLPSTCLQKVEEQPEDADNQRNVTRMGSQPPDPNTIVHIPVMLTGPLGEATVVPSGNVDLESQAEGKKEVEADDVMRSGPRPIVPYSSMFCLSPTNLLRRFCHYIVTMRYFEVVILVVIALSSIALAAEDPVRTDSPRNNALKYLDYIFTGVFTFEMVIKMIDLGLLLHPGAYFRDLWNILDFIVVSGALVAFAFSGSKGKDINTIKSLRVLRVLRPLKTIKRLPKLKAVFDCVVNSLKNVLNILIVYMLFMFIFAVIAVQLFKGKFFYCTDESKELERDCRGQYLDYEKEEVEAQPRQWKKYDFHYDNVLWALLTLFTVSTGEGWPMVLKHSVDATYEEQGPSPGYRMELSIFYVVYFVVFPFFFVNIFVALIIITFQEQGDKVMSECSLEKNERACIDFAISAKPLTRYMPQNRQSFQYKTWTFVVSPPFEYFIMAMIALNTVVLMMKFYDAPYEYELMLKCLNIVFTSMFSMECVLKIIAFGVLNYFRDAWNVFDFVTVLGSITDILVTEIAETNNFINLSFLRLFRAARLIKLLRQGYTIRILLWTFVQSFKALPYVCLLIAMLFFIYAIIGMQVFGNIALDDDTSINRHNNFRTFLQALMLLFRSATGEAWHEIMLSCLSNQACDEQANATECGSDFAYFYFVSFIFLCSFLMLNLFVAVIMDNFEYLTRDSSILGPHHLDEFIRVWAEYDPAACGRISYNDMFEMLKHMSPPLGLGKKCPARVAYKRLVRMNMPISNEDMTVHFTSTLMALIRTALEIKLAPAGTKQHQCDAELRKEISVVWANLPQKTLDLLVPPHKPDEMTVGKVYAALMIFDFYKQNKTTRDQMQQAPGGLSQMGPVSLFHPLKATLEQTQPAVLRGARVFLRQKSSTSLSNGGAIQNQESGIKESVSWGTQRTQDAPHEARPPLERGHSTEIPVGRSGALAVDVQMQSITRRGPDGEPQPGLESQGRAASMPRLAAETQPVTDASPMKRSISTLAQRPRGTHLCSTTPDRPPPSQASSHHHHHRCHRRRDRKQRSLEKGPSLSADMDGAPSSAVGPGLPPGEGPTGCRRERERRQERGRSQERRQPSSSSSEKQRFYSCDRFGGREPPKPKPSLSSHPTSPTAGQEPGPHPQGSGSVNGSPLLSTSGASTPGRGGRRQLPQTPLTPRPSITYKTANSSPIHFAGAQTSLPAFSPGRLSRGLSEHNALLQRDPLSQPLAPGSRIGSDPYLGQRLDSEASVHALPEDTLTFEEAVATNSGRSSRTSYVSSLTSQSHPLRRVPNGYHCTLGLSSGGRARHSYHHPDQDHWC

| Structure (SMILES) | inhibition [%] |
| --- | --- |
| CC(C)(C)OC(=O)N1CSC[C@H]1C(=O)N[C@@H](CSCC1CCCCC1)C(=O)NC1CCN(Cc2ccccc2)CC1 | 75 |

Target: T1, Voltage-dependent N-type calcium channel subunit alpha-1B
Experiment: In vitro inhibition of N-type calcium channel influx in IMR-32 human neuroblastoma cells
Assay type: cell-based
Conditions: not given
Target sequence in this assay (Q00975 whole entry): as the sequence (Q00975 whole entry, looked up) above

| Structure (SMILES) | IC50 [nM] |
| --- | --- |
| CC(C)(C)OC(=O)N1CSC[C@H]1C(=O)N[C@@H](CSCC1CCCCC1)C(=O)N1CCN(Cc2ccccc2)CC1 | 370 |
| CC(C)(C)OC(=O)N1CSC[C@H]1C(=O)N[C@@H](CSCC1CCCCC1)C(=O)N1CCC(NCc2ccccc2)CC1 | 500 |
| CC(C)(C)OC(=O)N1CSC[C@H]1C(=O)N[C@@H](CSCC1CCCCC1)C(=O)NC1CCN(Cc2ccccc2)CC1 | 330 |
| CC(C)(C)OC(=O)N1CSC[C@H]1C(=O)N[C@@H](CSCC1CCCCC1)C(=O)N1CCC(Nc2ccccc2)CC1 | 660 |
| CC(C)(C)OC(=O)N1CSC[C@H]1C(=O)N[C@@H](CSCC1CCCCC1)C(=O)NC1CCN(c2ccccc2)CC1 | 150 |
| CC(C)(C)OC(=O)N1CSC[C@H]1C(=O)N[C@@H](CSCC1CCCCC1)C(=O)N1CCN(c2ccccc2)CC1 | 390 |
| CC(C)(C)OC(=O)N1CSC[C@H]1C(=O)N[C@@H](CSCC1CCCCC1)C(=O)NCCNCc1ccccc1 | 380 |

Tested on: Rattus norvegicus
Experiment: Minimum effective oral dose required for the antinociceptive effects on thermal hyperalgesia induced by CCI (chronic constriction injury) of the sciatic nerve in rat
Assay type: functional
Conditions: read-out: MED

| Structure (SMILES) | minimal effective dose [mg/kg] |
| --- | --- |
| CC(C)(C)OC(=O)N1CSC[C@H]1C(=O)N[C@@H](CSCC1CCCCC1)C(=O)NC1CCN(Cc2ccccc2)CC1 | 30 |

Tested on: Rattus norvegicus
Experiment: Minimum effective oral dose required for the inhibition of paw flinching in rat formalin induced pain model
Assay type: functional
Conditions: read-out: MED

| Structure (SMILES) | minimal effective dose [mg/kg] |
| --- | --- |
| CC(C)(C)OC(=O)N1CSC[C@H]1C(=O)N[C@@H](CSCC1CCCCC1)C(=O)NC1CCN(Cc2ccccc2)CC1 | 10 |
| CC(C)(C)OC(=O)N1CSC[C@H]1C(=O)N[C@@H](CSCC1CCCCC1)C(=O)NCc1ccc(Oc2ccccc2)cc1 | > 100 |

Tested on: not listed separately
Experiment: Selectivity IC50 ratio of L-type blocking activity (AtT-20 mouse pituitary tumor-derived cells) to that of N-type blocking activity (IMR-32 human neuroblastoma cells)
Conditions: not given

| Structure (SMILES) | Ratio |
| --- | --- |
| CC(C)(C)OC(=O)N1CSC[C@H]1C(=O)N[C@@H](CSCC1CCCCC1)C(=O)N1CCN(Cc2ccccc2)CC1 | 2.7 |
| CC(C)(C)OC(=O)N1CSC[C@H]1C(=O)N[C@@H](CSCC1CCCCC1)C(=O)NC1CCN(c2ccccc2)CC1 | 3.6 |
| CC(C)(C)OC(=O)N1CSC[C@H]1C(=O)N[C@@H](CSCC1CCCCC1)C(=O)N1CCN(c2ccccc2)CC1 | 1.5 |
| CC(C)(C)OC(=O)N1CSC[C@H]1C(=O)N[C@@H](CSCC1CCCCC1)C(=O)NCc1ccc(Oc2ccccc2)cc1 | 12 |
| CC(C)(C)OC(=O)N1CSC[C@H]1C(=O)N[C@@H](CSCC1CCCCC1)C(=O)NCCNCc1ccccc1 | 6.3 |
